Results reported in PubChem BioAssay AID1963972 (Molecular Pharmacology Branch, DTP, NCI, 2024).

Test system: 945468-187-T-J2-PDC spheroids viability
Assay: Anticancer human tumor 945468-187-T-J2-PDC patient-derived rectal carcinoma cell line growth inhibition [PI3K]
Details: spheroids with HUVEC and MSC; for IC50: curve of first compound; for viability, T/C: stronger effect = lower value
Outline: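 Three cell types, namely tumor cells, endothelial cells and mesenchymal stem cells, formed each spheroid. Combinations with four PI3K inhibitors were screened at clinically achievable concentrations decreasing by half-log, and spheroid viability was recorded.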

[1] = second compound 0.0316 µM, first compound 0.0316 µM
[2] = second compound 0.0316 µM, first compound 0.1 µM
[3] = second compound 0.0316 µM, first compound 0.316 µM
[4] = second compound 0.0316 µM, first compound 1 µM
[5] = second compound 0.0316 µM, first compound 3.16 µM
[6] = second compound 0.0316 µM, first compound 10 µM
[7] = second compound 0.1 µM, first compound 0.0316 µM
[8] = second compound 0.1 µM, first compound 0.1 µM
[9] = second compound 0.1 µM, first compound 0.316 µM
[10] = second compound 0.1 µM, first compound 1 µM
[11] = second compound 0.1 µM, first compound 3.16 µM
[12] = second compound 0.1 µM, first compound 10 µM
[13] = second compound 0.316 µM, first compound 0.0316 µM
[14] = second compound 0.316 µM, first compound 0.1 µM
[15] = second compound 0.316 µM, first compound 0.316 µM
[16] = second compound 0.316 µM, first compound 1 µM
[17] = second compound 0.316 µM, first compound 3.16 µM
[18] = second compound 0.316 µM, first compound 10 µM
[19] = second compound 1 µM, first compound 0.0316 µM
[20] = second compound 1 µM, first compound 0.1 µM
[21] = second compound 1 µM, first compound 0.316 µM
[22] = second compound 1 µM, first compound 1 µM
[23] = second compound 1 µM, first compound 3.16 µM
[24] = second compound 1 µM, first compound 10 µM
[25] = second compound 3.16 µM, first compound 0.0316 µM
[26] = second compound 3.16 µM, first compound 0.1 µM
[27] = second compound 3.16 µM, first compound 0.316 µM
[28] = second compound 3.16 µM, first compound 1 µM
[29] = second compound 3.16 µM, first compound 3.16 µM
[30] = second compound 3.16 µM, first compound 10 µM
[31] = second compound 10 µM, first compound 0.0316 µM
[32] = second compound 10 µM, first compound 0.1 µM
[33] = second compound 10 µM, first compound 0.316 µM
[34] = second compound 10 µM, first compound 1 µM
[35] = second compound 10 µM, first compound 3.16 µM
[36] = second compound 10 µM, first compound 10 µM
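Note: spheroids exposed to compounds for seven days before reading.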

In the case of `C#Cc1c(F)ccc2cc(O)cc(-c3ncc4c(N5CC6CCC(C5)N6)nc(OCC56CCCN5CC(F)C6)nc4c3F)c12` (stereo unspecified) + CC(Nc1ncnc2nc[nH]c12)c1cc2cccc(Cl)c2c(=O)n1-c1ccccc1, the IC50 (second compound 0.0316 µM) is reported as greater than 10 µM, the IC50 (second compound 0.1 µM) is reported as greater than 10 µM and the IC50 (second compound 0.316 µM) is reported as greater than 10 µM. The IC50 (second compound 1 µM) was greater than 10 µM, the IC50 (second compound 3.16 µM) was greater than 10 µM and the IC50 (second compound 10 µM) was greater than 10 µM. The viability, T/C [1] was 101%, the viability, T/C [2] was 99.8% and the viability, T/C [3] was 95.8%. It also gave a viability, T/C [4] of 86.4%, a viability, T/C [5] of 102% and a viability, T/C [6] of 117%. For the same molecule, the viability, T/C [7] was 111%, the viability, T/C [8] was 110% and the viability, T/C [9] was 103%. It also gave a viability, T/C [10] of 134%, a viability, T/C [11] of 107% and a viability, T/C [12] of 106%. The viability, T/C [13] was 100%, the viability, T/C [14] was 116% and the viability, T/C [15] was 87.1%. It also gave a viability, T/C [16] of 95.3%, a viability, T/C [17] of 116% and a viability, T/C [18] of 111%. It also gave a viability, T/C [19] of 96.3%, a viability, T/C [20] of 104% and a viability, T/C [21] of 113%. It also gave a viability, T/C [22] of 106%, a viability, T/C [23] of 96.2% and a viability, T/C [24] of 114%. For the same molecule, the viability, T/C [25] was 91%, the viability, T/C [26] was 98.6% and the viability, T/C [27] was 107%. It also gave a viability, T/C [28] of 125%, a viability, T/C [29] of 114% and a viability, T/C [30] of 105%. The viability, T/C [31] was 114%, the viability, T/C [32] was 140% and the viability, T/C [33] was 149%. For the same molecule, the viability, T/C [34] was 99.7%, the viability, T/C [35] was 116% and the viability, T/C [36] was 112%.

With `C=CC(=O)N1CCN(c2nc(=O)n(-c3c(C)ccnc3C(C)C)c3nc(-c4c(O)cccc4F)c(F)cc23)C(C)C1` (stereo unspecified) + CC(Nc1ncnc2nc[nH]c12)c1cc2cccc(Cl)c2c(=O)n1-c1ccccc1 the IC50 (second compound 0.0316 µM) was greater than 10 µM, the IC50 (second compound 0.1 µM) was greater than 10 µM and the IC50 (second compound 0.316 µM) was greater than 10 µM. The IC50 (second compound 1 µM) was greater than 10 µM, the IC50 (second compound 3.16 µM) was greater than 10 µM and the IC50 (second compound 10 µM) was greater than 10 µM. The viability, T/C [1] was 103%, the viability, T/C [2] was 124% and the viability, T/C [3] was 100%. For the same molecule, the viability, T/C [4] was 114%, the viability, T/C [5] was 111% and the viability, T/C [6] was 95.8%. The viability, T/C [7] was 97.5%, the viability, T/C [8] was 82.7% and the viability, T/C [9] was 91.5%. For the same molecule, the viability, T/C [10] was 85.2%, the viability, T/C [11] was 93% and the viability, T/C [12] was 136%. For the same molecule, the viability, T/C [13] was 109%, the viability, T/C [14] was 114% and the viability, T/C [15] was 96.3%. It also gave a viability, T/C [16] of 105%, a viability, T/C [17] of 106% and a viability, T/C [18] of 84.7%. It also gave a viability, T/C [19] of 87.6%, a viability, T/C [20] of 98.8% and a viability, T/C [21] of 113%. For the same molecule, the viability, T/C [22] was 104%, the viability, T/C [23] was 107% and the viability, T/C [24] was 89.3%. The viability, T/C [25] was 94.6%, the viability, T/C [26] was 106% and the viability, T/C [27] was 104%. For the same molecule, the viability, T/C [28] was 97.8%, the viability, T/C [29] was 99.6% and the viability, T/C [30] was 104%. The viability, T/C [31] was 124%, the viability, T/C [32] was 122% and the viability, T/C [33] was 116%. It also gave a viability, T/C [34] of 123%, a viability, T/C [35] of 92.4% and a viability, T/C [36] of 90.4%.

With `CC(Cn1ccc(-c2ccc(C#N)c(Cl)c2)n1)NC(=O)c1cc(C(C)O)[nH]n1` (stereo unspecified) + CC(Nc1ncnc2nc[nH]c12)c1cc2cccc(Cl)c2c(=O)n1-c1ccccc1 the IC50 (second compound 0.0316 µM) was greater than 10 µM, the IC50 (second compound 0.1 µM) was greater than 10 µM and the IC50 (second compound 0.316 µM) was greater than 10 µM. The IC50 (second compound 1 µM) was greater than 10 µM, the IC50 (second compound 3.16 µM) was greater than 10 µM and the IC50 (second compound 10 µM) was greater than 10 µM. It also gave a viability, T/C [1] of 99.9%, a viability, T/C [2] of 75.6% and a viability, T/C [3] of 108%. For the same molecule, the viability, T/C [4] was 104%, the viability, T/C [5] was 99.9% and the viability, T/C [6] was 89.3%. The viability, T/C [7] was 128%, the viability, T/C [8] was 105% and the viability, T/C [9] was 106%. For the same molecule, the viability, T/C [10] was 95.3%, the viability, T/C [11] was 117% and the viability, T/C [12] was 127%. For the same molecule, the viability, T/C [13] was 111%, the viability, T/C [14] was 86.3% and the viability, T/C [15] was 87%. The viability, T/C [16] was 89.3%, the viability, T/C [17] was 91% and the viability, T/C [18] was 91.6%. The viability, T/C [19] was 87.2%, the viability, T/C [20] was 97.8% and the viability, T/C [21] was 78.4%. It also gave a viability, T/C [22] of 88.9%, a viability, T/C [23] of 82.6% and a viability, T/C [24] of 106%. It also gave a viability, T/C [25] of 92.7%, a viability, T/C [26] of 94.1% and a viability, T/C [27] of 103%. It also gave a viability, T/C [28] of 89.6%, a viability, T/C [29] of 92.3% and a viability, T/C [30] of 85.3%. The viability, T/C [31] was 113%, the viability, T/C [32] was 104% and the viability, T/C [33] was 88.7%. For the same molecule, the viability, T/C [34] was 111%, the viability, T/C [35] was 109% and the viability, T/C [36] was 108%.
